Data: patent publication US20240165196A1, “Beta-Lactamase Inhibitors” (VIB VZW, priority 2021, published 2024)

Experiments:
Assay type in all cases: cell-based
[1] = test system: E. coli clinical isolate, β-lactamase TEM-ESBL; CTX-M-15; NDM-19; assay: MIC of ampicillin without/with 30 μg/mL TEM3.2, clinical isolates; details: isolate 2017 Qatar, IAI, Abscess; ampicillin alone
Protocol: (§1) Moreover, the core sequence of peptide TEM3.0 also occurs in the structurally related SHV β-lactamase (FIG. 2E). Although the C-terminal extension residues H and N have been replaced with physicochemically similar R and Q, respectively (FIG. 2H). […] To quantify the synergy between these four peptides and penicillin G, we performed a so-called checkerboard assay, which allows to compare the activity of two test compounds co-incubated (here peptide and a beta-lactam antibiotic), to their individual activities in isolation. The result from the assay is quantified as the Fractional Inhibitory Concentration Index (FICI), and it is generally accepted that values below 0.5 indicate synergistic effects between the compounds. As a control, we generated a peptide using the same design, but based on a previously identified APR from the β-galactosidase enzyme (BGAL)^16 from E. coli (APR=SVIIWSL, peptide sequence=[…]) that has a MIC value>100 μg/mL on E. coli strain UZ_TEM104. We evaluated the synergy of the peptides with penicillin G in clinical E. coli isolates carrying the TEM (FIG. 2I) or SHV enzymes (FIG. 2J). […] As a further control, we also performed a checkerboard assay with an E. coli strain that was resistant to the aminoglycoside kanamycin and observed no synergy between this unrelated antibiotic and our peptides (FIG. 2L), in line with the notion that we are inhibiting a beta-lactamase but not the aminoglycoside degrading enzyme. […] The list of strains included some that harbored only TEM or SHV, but others contained additional Ambler Class A (CTX-M or OXA) or Class B (VIM and NDM) beta-lactamases. […] In contrast, the presence of the NDM-type […], that does have a high affinity for Ampicillin and that is completely distinct in sequence and structure from TEM and SHV, seemed to completely prevent the effect of the peptide on the beta-lactam sensitivity of the strains in which it occurred (see also further). As it appeared that TEM3.2 had activity in most isolates tested, we decided to focus further analysis on this peptide. Furthermore, we tested the performance of the TEM3.2 peptide in a checkerboard assay on strains carrying ESBL mutants of TEM, i.e. extended-spectrum mutations that cluster around the active site of the enzyme, and not in the aggregation prone region targeted by the peptide, and as expected from our mode of action, we observed synergy with ampicillin on these strains (FIG. 2M).
(§2) Determination of MIC values using the broth microdilution in the 96-well plate (BD Biosciences, Belgium) according to the EUCAST guideline, which was performed in 96-well polystyrene flat bottom microtiter plates (BD Biosciences). Briefly, a single colony was inoculated into 5 mL Difco™ Mueller Hinton Broth (BD Biosciences Ref 275730) and grown to the end-exponential growth phase in a shaking incubator at 37° C. Cultures were subsequently diluted to an MacFarland (0.5 optical density) then the culture was diluted to reach 10^6 CFU/mL in fresh MHB medium. 50 μl of different concentration of peptides ranging from 128 to 2 μg/mL were serially diluted to the sterile 96-well plate in MHB. 50 μL of the diluted bacteria in MHB were pipetted into 96-well plates to reach the final volume of 100 μL. The bacteria grown with the maximum concentration of carrier and medium were considered as positive and negative controls, respectively. The plates were statically incubated overnight at 37° C. to allow bacterial growth. OD was measured at 590 nm a multipurpose ultraviolet-visible plate reader, and the absorbance of the growth bacteria was measured using absorbance reader. Bacterial growth was also visually inspected and agreed well with the OD reading.

[2] = test system: E. coli clinical isolate, β-lactamase TEM-ESBL; CTX-M-TYPE; assay: as above; details: isolate 2017 France, IAI, Peritoneal Fluid; ampicillin alone
Protocol: as §1, §2

[3] = test system: E. coli clinical isolate, β-lactamase SHV-2; CTX-M-55; VIM-1; assay: as above; details: isolate 2017 Turkey, UTI, Urine; ampicillin alone
Protocol: as §1, §2

[4] = test system: E. coli clinical isolate, β-lactamase TEM-ESBL; CTX-M-27; assay: as above; details: isolate 2017 Romania, UTI, Urine; ampicillin alone
Protocol: as §1, §2

[5] = test system: E. coli clinical isolate, β-lactamase TEM-1; assay: as above; details: isolates year NA, country NA, ampicillin alone
Protocol: as §1, §2

[6] = test system: E. coli clinical isolate, β-lactamase TEM-ESBL; assay: as above; details: ampicillin alone
Protocol: as §1, §2

[7] = test system: E. coli clinical isolate, β-lactamase TEM-ESBL; CTX-M-15; NDM-5; assay: as above; details: isolate 2017 Qatar, UTI, Urine; ampicillin alone
Protocol: as §1, §2

[8] = test system: E. coli clinical isolate, β-lactamase TEM-ESBL; CTX-M-24; OXA-48; assay: as above; details: isolate 2017 Turkey, IAI, Abscess; ampicillin alone
Protocol: as §1, §2

[9] = test system: E. coli clinical isolate, β-lactamase SHV-12; TEM-ESBL; assay: as above; details: isolate 2017 Germany, RTI, Bronchi; ampicillin alone
Protocol: as §1, §2

[10] = test system: E. coli TEM-104; on Interpretation: key: S, susceptible; I, intermediate; R, resistant
Protocol: (§3) Beta-lactamase clinical samples were collected from University Hospitals Leuven and tested for ESBL production using the disk diffusion method^61. The beta-lactamase reference isolates were purchased from IHMA International Health management associates. Bacterial strains were cultivated in Mueller Hinton Broth (MHB, Difco) at 37° C. Whenever required growth media were supplemented with appropriate antibiotic to the medium or plates (kanamycin 30 μg/mL, L-arabinose 0.5 mg/mL, and IPTG 1 mM/mL). Escherichia coli BL21 (Thermo Fisher Scientific, Belgium) was used for cloning and plasmid amplification. For selection of antibiotic resistance colonies, E. coli carrying plasmids was grown in LB agar plates supplemented with the relevant antibiotic. Bacterial CFU counting was done on blood agar plates (BD Biosciences, Belgium) or MHA agar plates. Species identification and antibiograms for all clinical isolates were performed using MALDI-Tof and VITEK® 2 automated system (BioMérieux, France).

[11] = test system: E. coli TEM-148; on Interpretation: key: S, susceptible; I, intermediate; R, resistant
Protocol: as §3

[12] = test system: E. coli TEM-1 ?
Protocol: as §3

[13] = test system: E. coli NDM ? a; assay: antimicrobial susceptibility testing, VITEK 2 AST Cards
Protocol: as §3

[14] = test system: E. coli TEM-206; assay: as above; on Interpretation: key: S, susceptible; I, intermediate; R, resistant
Protocol: as §3

[15] = test system: E. coli SH ? (APHA); assay: as above
Protocol: as §3

[16] = test system: E. coli NDM ? b; assay: as above
Protocol: as §3

CC1(C)S[C@@H]2[C@H](NC(=O)[C@H](N)c3ccccc3)C(=O)N2[C@H]1C(=O)O [ampicillin, Ampicillin]
MIC ampicillin [1]: > 64 µg/mL | MIC ampicillin [2]: > 64 µg/mL | MIC ampicillin [3]: > 64 µg/mL | MIC ampicillin [4]: > 64 µg/mL | MIC ampicillin [5]: > 64 µg/mL | MIC ampicillin ([6]; isolate 2016 Germany, UTI, Urine): > 64 µg/mL | MIC ampicillin ([6]; isolate 2016 Lithuania, UTI, Urine): > 64 µg/mL | MIC ampicillin ([6]; isolate 2017 Israel, UTI, Urine): > 64 µg/mL | MIC ampicillin ([6]; isolate 2017 Portugal, RTI, Bronchi): > 64 µg/mL | MIC ampicillin ([6]; isolates 2016 South Africa, IAI, Peritoneal Fluid): > 64 µg/mL | MIC ampicillin [7]: > 64 µg/mL | MIC ampicillin [8]: > 64 µg/mL | MIC ampicillin [9]: > 64 µg/mL | Interpretation [10]: R | MIC [10]: ≥ 32 µg/mL | Interpretation [11]: R | MIC [11]: ≥ 32 µg/mL | Interpretation [12]: R | MIC [12]: ≥ 32 µg/mL | Interpretation [13]: R | Interpretation [14]: R | MIC [14]: ≥ 32 µg/mL | Interpretation [15]: R | Interpretation [16]: R
